The values below come from patent US10919877B2, “Multifunctional inhibitors of MEK/PI3K and mTOR/MEK/PI3K biological pathways and therapeutic methods using the same” (THE REGENTS OF THE UNIVERSITY OF MICHIGAN, priority 2016, dated 2021).

Where two headings read alike, the source gives them in different places.

Holding throughout (format): biochemical
The target in one assay is T1, PI3Kβ (Homo sapiens, UniProt P42338).
T1 construct: purchased Life Technologies (assay run by the vendor)
Description: PI3K subtype enzyme inhibition.

Another assay has as its target T2, PI3Kγ (Homo sapiens, UniProt P48736).
T2 construct: purchased Life Technologies (assay run by the vendor)
The assay can be described thus: PI3K subtype enzyme inhibition.

A further assay concerns the target T3, PI3Kα (Homo sapiens, UniProt P42336).
T3 construct: purchased Life Technologies (assay run by the vendor)
The assay can be described thus: PI3K subtype enzyme inhibition.

The target in another assay is T4, PI3Kδ (Homo sapiens, UniProt O00329).
T4 construct: purchased Life Technologies (assay run by the vendor)
Description: PI3K subtype enzyme inhibition.

The target in another assay is mTOR (Homo sapiens, UniProt P42345). Description: mTOR enzyme inhibition.
The mark [1] stands for this setting: read-out: PI3K Subtype Enzyme Inhibition Data IC50 PI3Kα.
Where [2] appears, read: table of additional PI3K inhibitors, read-out: PI3Kα IC50.
[3] abbreviates: read-out: PI3K Subtype Enzyme Inhibition Data IC50 PI3Kδ.
Setting [4] is: table of additional PI3K inhibitors, read-out: PI3Kδ IC50.
[5] abbreviates: read-out: PI3K Subtype Enzyme Inhibition Data IC50 PI3Kβ.
Where [6] appears, read: table of additional PI3K inhibitors, read-out: PI3Kβ IC50.
The mark [7] stands for this setting: read-out: PI3K Subtype Enzyme Inhibition Data IC50 PI3Kγ.
Setting [8] is: table of additional PI3K inhibitors, read-out: PI3Kγ IC50.

T1 sequence (P42338 whole entry): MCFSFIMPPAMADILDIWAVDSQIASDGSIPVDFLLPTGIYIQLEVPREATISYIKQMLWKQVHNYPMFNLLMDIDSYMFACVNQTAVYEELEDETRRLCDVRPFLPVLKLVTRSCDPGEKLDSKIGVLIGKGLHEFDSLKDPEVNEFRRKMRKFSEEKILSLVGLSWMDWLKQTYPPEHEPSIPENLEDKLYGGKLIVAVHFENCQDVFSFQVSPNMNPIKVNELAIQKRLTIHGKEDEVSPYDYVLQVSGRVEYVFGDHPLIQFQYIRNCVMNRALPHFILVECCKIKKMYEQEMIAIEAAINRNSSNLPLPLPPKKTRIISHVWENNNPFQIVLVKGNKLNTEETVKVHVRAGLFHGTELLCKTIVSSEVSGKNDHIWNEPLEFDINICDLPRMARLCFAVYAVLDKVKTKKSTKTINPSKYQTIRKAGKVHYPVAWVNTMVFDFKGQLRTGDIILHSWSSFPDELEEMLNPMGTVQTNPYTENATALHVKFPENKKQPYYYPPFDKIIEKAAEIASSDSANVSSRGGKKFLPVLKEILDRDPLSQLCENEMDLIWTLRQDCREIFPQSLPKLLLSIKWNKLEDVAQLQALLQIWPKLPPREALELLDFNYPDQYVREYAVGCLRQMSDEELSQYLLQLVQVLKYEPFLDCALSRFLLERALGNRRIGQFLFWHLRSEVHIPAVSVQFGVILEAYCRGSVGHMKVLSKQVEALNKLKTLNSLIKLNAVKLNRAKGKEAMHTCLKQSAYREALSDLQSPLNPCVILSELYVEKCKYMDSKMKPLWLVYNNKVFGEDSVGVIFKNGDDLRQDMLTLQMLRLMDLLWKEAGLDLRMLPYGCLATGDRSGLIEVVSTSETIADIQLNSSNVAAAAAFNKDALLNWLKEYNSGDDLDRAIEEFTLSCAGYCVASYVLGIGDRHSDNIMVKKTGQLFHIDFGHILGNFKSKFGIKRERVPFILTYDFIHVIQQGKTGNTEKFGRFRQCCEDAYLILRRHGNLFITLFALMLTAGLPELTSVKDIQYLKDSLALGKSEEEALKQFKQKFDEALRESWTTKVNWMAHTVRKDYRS
T1 sequence (P27986 whole entry partner): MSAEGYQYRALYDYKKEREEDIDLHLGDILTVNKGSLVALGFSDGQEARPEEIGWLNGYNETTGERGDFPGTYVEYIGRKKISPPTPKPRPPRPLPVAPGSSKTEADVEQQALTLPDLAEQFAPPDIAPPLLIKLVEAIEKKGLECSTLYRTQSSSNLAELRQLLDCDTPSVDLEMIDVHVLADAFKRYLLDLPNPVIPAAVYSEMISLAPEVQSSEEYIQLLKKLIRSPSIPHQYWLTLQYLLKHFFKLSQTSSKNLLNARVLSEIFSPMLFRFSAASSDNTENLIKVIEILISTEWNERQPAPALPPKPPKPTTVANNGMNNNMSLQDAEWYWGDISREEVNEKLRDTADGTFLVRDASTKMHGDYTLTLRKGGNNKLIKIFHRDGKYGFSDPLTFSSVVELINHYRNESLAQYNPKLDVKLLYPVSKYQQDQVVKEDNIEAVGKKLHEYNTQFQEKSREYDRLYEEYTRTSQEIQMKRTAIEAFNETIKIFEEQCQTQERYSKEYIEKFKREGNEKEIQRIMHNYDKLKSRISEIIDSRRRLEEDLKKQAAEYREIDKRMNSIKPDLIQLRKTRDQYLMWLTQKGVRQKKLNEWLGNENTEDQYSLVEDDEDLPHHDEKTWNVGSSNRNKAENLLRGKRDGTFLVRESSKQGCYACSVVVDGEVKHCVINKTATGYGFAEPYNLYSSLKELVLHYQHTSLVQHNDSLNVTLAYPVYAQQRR
T4 sequence (O00329 whole entry): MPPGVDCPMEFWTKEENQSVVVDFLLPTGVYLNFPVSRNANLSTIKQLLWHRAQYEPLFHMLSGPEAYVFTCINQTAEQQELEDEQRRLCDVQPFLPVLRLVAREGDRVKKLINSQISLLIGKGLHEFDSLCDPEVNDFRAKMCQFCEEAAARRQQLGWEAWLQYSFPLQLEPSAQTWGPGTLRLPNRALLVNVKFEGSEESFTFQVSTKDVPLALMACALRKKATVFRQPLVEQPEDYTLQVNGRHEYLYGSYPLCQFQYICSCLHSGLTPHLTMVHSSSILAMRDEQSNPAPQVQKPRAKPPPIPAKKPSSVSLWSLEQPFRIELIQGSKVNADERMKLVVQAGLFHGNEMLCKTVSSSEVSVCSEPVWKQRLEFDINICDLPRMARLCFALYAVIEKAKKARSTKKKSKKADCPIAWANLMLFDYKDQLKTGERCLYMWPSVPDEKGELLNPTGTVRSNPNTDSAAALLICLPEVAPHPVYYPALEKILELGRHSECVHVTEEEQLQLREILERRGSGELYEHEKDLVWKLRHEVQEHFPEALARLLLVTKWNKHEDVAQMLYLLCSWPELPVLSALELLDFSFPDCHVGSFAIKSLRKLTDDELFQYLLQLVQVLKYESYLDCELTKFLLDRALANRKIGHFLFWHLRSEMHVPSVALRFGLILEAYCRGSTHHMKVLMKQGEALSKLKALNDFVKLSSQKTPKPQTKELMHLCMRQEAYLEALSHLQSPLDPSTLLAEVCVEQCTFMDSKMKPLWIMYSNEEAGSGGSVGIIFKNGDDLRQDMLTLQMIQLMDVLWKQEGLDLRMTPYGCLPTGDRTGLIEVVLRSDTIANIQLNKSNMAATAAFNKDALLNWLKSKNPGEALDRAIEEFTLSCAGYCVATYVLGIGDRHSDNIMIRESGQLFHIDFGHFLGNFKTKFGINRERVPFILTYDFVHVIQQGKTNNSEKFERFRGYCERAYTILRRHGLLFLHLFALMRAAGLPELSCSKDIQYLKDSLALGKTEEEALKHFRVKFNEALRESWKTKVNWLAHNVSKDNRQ
T4 sequence (P27986 whole entry partner): as the sequence (P27986 whole entry partner) above
T3 sequence (P42336 whole entry): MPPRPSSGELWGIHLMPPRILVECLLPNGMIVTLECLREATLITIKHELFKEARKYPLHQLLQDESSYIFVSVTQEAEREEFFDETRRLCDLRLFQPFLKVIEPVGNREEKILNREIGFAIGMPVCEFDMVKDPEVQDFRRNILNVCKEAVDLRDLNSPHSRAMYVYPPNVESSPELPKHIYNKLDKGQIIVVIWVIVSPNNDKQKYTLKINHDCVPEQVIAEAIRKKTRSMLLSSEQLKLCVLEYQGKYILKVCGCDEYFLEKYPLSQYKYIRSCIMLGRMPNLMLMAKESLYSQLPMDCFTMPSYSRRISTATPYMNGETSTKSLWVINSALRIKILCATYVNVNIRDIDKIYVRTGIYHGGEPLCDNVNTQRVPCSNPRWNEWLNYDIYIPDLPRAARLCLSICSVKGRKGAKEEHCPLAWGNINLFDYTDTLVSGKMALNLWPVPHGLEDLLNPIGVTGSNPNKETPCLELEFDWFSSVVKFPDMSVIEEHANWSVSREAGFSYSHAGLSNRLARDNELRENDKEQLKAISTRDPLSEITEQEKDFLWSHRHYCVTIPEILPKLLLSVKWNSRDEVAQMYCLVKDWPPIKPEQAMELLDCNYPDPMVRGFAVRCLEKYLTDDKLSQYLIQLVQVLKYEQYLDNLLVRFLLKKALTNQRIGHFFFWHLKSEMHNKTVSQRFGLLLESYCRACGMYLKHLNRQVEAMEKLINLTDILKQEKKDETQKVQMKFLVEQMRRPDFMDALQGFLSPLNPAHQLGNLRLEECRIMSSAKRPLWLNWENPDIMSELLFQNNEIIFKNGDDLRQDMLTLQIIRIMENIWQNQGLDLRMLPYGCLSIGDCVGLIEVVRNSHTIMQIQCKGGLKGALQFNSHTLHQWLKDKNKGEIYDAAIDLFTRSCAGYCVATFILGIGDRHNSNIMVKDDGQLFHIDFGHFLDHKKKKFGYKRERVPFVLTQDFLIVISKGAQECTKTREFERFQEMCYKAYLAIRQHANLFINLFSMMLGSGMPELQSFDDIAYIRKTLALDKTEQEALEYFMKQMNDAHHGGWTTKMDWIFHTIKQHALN
T3 sequence (P27986 whole entry partner): as the sequence (P27986 whole entry partner) above
T2 sequence (P48736 whole entry): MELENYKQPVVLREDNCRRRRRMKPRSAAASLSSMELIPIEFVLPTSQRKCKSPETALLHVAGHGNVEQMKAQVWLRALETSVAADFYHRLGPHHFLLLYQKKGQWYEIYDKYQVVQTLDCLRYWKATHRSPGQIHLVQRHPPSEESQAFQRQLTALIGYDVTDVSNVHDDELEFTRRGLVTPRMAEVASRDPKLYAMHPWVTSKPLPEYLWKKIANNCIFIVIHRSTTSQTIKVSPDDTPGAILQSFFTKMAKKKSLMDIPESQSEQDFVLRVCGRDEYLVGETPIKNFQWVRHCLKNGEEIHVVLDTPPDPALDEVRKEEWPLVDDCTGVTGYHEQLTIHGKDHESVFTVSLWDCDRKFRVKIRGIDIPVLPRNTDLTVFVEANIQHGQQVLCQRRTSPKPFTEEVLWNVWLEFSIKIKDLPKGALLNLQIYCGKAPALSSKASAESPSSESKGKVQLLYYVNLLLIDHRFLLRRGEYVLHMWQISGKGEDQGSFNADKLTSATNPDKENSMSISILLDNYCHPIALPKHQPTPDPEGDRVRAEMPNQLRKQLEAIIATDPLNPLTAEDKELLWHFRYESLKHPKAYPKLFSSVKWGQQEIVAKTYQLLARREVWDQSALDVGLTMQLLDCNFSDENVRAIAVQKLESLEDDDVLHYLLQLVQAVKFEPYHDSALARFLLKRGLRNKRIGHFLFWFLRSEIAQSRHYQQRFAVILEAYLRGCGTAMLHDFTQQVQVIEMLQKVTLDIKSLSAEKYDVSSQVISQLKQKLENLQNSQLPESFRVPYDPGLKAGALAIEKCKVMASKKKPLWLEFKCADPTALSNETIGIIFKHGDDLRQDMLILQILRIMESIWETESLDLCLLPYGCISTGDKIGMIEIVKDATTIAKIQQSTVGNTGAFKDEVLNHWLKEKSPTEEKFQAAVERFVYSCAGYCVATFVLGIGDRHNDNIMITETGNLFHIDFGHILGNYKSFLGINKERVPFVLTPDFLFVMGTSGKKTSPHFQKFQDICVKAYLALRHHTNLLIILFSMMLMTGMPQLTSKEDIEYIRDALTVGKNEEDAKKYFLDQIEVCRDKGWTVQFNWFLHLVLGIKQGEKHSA

Turning to `FC(F)c1nc2ccccc2n1-c1nc(N2CCNCC2)nc(N2CCOCC2)n1`, the IC50 on PI3Kβ (mean ± SEM, read-out: PI3K Subtype Inhibition Activity PI3Kβ) came out at 1090 ± 168 nM; on PI3Kγ (mean ± SEM, read-out: PI3K Subtype Inhibition Activity PI3Kγ) it was 1870 ± 283 nM.

In the case of `CNCCNc1nc(N2CCOCC2)nc(-n2c(C(F)F)nc3ccccc32)n1` [ST-5-02], the IC50 is 248 ± 24 nM at PI3Kα (setting [1]); 248 ± 24 nM on PI3Kα (setting [2]); 135 ± 19 nM on PI3Kδ (setting [3]); 135 ± 19 nM on PI3Kδ (setting [4]); 2900 ± 375 nM at PI3Kβ (setting [5]); 2900 ± 375 nM on PI3Kβ (setting [6]). The IC50 on PI3Kγ (setting [7]) and at PI3Kγ (setting [8]) was 681 ± 90 nM each time.

For `CC(=O)N1CCN(c2nc(N3CCOCC3)nc(-n3c(C(F)F)nc4ccccc43)n2)CC1` [ST-5-03], the IC50 on PI3Kβ (setting [5]) was determined as 14.3 ± 2.5 nM; on PI3Kβ (setting [6]) it was 14.3 ± 2.5 nM; on PI3Kγ (setting [7]), 21 ± 1 nM; on PI3Kγ (setting [8]), 21 ± 1 nM.

`CN(CCOCCOCCONC(=O)c1ccc(F)c(F)c1Nc1ccc(I)cc1F)CC[N+](C)(C)CCOCCOCCC(=O)N1CCN(c2nc(N3CCOCC3)nc(-n3c(C(F)F)nc4ccccc43)n2)CC1` [ST-5-05]: the IC50 amounted to 39 ± 2 nM at PI3Kα (setting [1]), 56 ± 13 nM at PI3Kδ (setting [3]), 2520 ± 557 nM at PI3Kβ (setting [5]) and 2590 ± 660 nM at PI3Kγ (setting [7]).

Regarding `CNC(=O)CCNc1nc(N2CCOCC2)nc(-n2c(C(F)F)nc3ccccc32)n1` [ST-5-21], the IC50 at PI3Kα (setting [1]) came out at 20 ± 0.4 nM; at PI3Kα (setting [2]), 20 ± 0.4 nM; on PI3Kδ (setting [3]), 26 ± 4.9 nM; on PI3Kδ (setting [4]), 26 ± 4.9 nM; on PI3Kβ (setting [5]) it was 431 ± 83 nM; on PI3Kβ (setting [6]), 431 ± 83 nM. Also, the IC50 on PI3Kγ (setting [7]) and on PI3Kγ (setting [8]) was 67 ± 2.8 nM in each case.

`CC(=O)NCCNc1nc(N2CCOCC2)nc(-n2c(C(F)F)nc3ccccc32)n1` [ST-5-22]: the IC50 on PI3Kα (setting [1]) was determined as 16.6 ± 1.4 nM; on PI3Kδ (setting [3]), 9.5 ± 2.4 nM; at PI3Kβ (setting [5]), 199 ± 12 nM; at PI3Kγ (setting [7]), 54 ± 1.5 nM.

Regarding `O=C(O)CCNc1nc(N2CCOCC2)nc(-n2c(C(F)F)nc3ccccc32)n1` [ST-5-25], the IC50 on PI3Kα (setting [1]) stood at 12.4 ± 0.7 nM; on PI3Kα (setting [2]) it was 12.4 ± 0.7 nM; at PI3Kδ (setting [3]), 60 ± 3.4 nM; on PI3Kδ (setting [4]), 60 ± 3.4 nM; at PI3Kβ (setting [5]), 787 ± 106 nM; at PI3Kβ (setting [6]) it was 787 ± 106 nM. Further, the IC50 at PI3Kγ (setting [7]) and on PI3Kγ (setting [8]) was 22.3 ± 0.7 nM in each case.

Regarding `NOCCOCCOCCOCCC(=O)N1CCN(c2cnc3ccc(-c4cnc(Cl)c(NS(=O)(=O)c5ccc(F)cc5)c4)cc3n2)CC1` [ST-5-29], the IC50 on PI3Kα (read-out: PI3Kα IC50) is less than 0.495 nM; on PI3Kβ (read-out: PI3Kβ IC50), 1.33 ± 0.59 nM; against mTOR, 6.77 ± 0.43 nM; on PI3Kγ (read-out: PI3Kγ IC50) it was 30.2 ± 0.14 nM.

As for `NOCCOCCOCCOCCC(=O)N1CCN(c2nc(N3CCOCC3)nc(-n3c(C(F)F)nc4ccccc43)n2)CC1` [ST-167], the IC50 worked out at 214 ± 49 nM at PI3Kβ (setting [5]), 214 ± 49 nM on PI3Kβ (setting [6]), 140 ± 6.6 nM on PI3Kγ (setting [7]) and 140 ± 6.6 nM at PI3Kγ (setting [8]).

In the case of `NCCNc1nc(N2CCOCC2)nc(-n2c(C(F)F)nc3ccccc32)n1` [ST-177], the IC50 on PI3Kα (setting [1]) stood at 292 ± 31 nM; on PI3Kα (setting [2]), 292 ± 31 nM; on PI3Kδ (setting [3]) it was 291 ± 32 nM; on PI3Kδ (setting [4]), 291 ± 32 nM; at PI3Kβ (setting [5]) it was 2120 ± 444 nM; at PI3Kβ (setting [6]) it was 2120 ± 444 nM. The IC50 on PI3Kγ (setting [7]) and at PI3Kγ (setting [8]) was 771 ± 63 nM throughout.

In the case of `COCCNc1nc(N2CCOCC2)nc(-n2c(C(F)F)nc3ccccc32)n1` [ST-178], the IC50 on PI3Kα (setting [1]) came to 20 ± 3 nM; at PI3Kα (setting [2]), 20 ± 3 nM; at PI3Kδ (setting [3]) it was 17 ± 1 nM; on PI3Kδ (setting [4]) it was 17 ± 1 nM; at PI3Kβ (setting [5]), 208 ± 15 nM; at PI3Kβ (setting [6]), 208 ± 15 nM. Further, the IC50 on PI3Kγ (setting [7]) and on PI3Kγ (setting [8]) was 64 ± 5 nM in each case.

With `OCCNc1nc(N2CCOCC2)nc(-n2c(C(F)F)nc3ccccc32)n1` [ST-187], the IC50 at PI3Kα (setting [1]) was determined as 9.9 ± 1.2 nM; at PI3Kα (setting [2]) it was 9.9 ± 1.2 nM; on PI3Kδ (setting [3]), 8.1 ± 1.7 nM; at PI3Kδ (setting [4]), 8.1 ± 1.7 nM; at PI3Kβ (setting [5]), 71 ± 8 nM; on PI3Kβ (setting [6]) it was 71 ± 8 nM. The IC50 at PI3Kγ (setting [7]) and on PI3Kγ (setting [8]) was 54 ± 1 nM each time.
